# Data as given in patent US11135234B2, “Effective aminoglycoside antibiotic for multidrug-resistant bacteria” (MICROBIAL CHEMISTRY RESEARCH FOUNDATION, priority 2015, dated 2021).
# Assays:
# P. aeruginosa MSC01035 = assay: MIC, agar plate dilution method, P. aeruginosa MSC01035; type: cell-based, Pseudomonas aeruginosa; details: P. aeruginosa MSC01035, ABK-resistant; for MIC: Pseudomonas aeruginosa, read-out: minimal inhibitory concentration (MIC)
# Procedure: (§1) As for the representative compounds of a new aminoglycoside antibiotic of the present invention described in Examples, the minimal inhibitory concentration (MIC, μg/mL) was measured for various assay strains of bacteria using an agar plate dilution method in accordance with the method described in the Japan Society of Chemotherapy.
# S. aureus RN4220 = assay: MIC, agar plate dilution method, S. aureus RN4220; type: cell-based, Staphylococcus aureus; details: for minimal inhibitory concentration (MIC): S. aureus RN4220, Sensitive bacterium; for MIC: Staphylococcus aureus, RN4220, S. aureus RN4220, Sensitive bacterium, read-out: minimal inhibitory concentration (MIC)
# Procedure: as §1
# [1] = test system: K. pneumoniae ATCC BAA-2146; assay: MIC, agar plate dilution method, K. pneumoniae ATCC BAA-2146; type: cell-based, Klebsiella pneumoniae; details: for minimal inhibitory concentration (MIC): K. pneumoniae ATCC BAA-2146, NDM-producing strain; for MIC: Klebsiella pneumoniae, ATCCBAA2146, K. pneumoniae ATCC BAA-2146, NDM-producing strain, read-out: minimal inhibitory concentration (MIC)
# Procedure: as §1
# P. aeruginosa PAO1 = assay: MIC, agar plate dilution method, P. aeruginosa PAO1; type: cell-based, Pseudomonas aeruginosa; details: for minimal inhibitory concentration (MIC): P. aeruginosa PAO1, Sensitive bacterium; for MIC: Pseudomonas aeruginosa, PAO1, P. aeruginosa PAO1, Sensitive bacterium, read-out: minimal inhibitory concentration (MIC)
# Procedure: as §1
# P. aeruginosa MSC17707 = assay: MIC, agar plate dilution method, P. aeruginosa MSC17707; type: cell-based, Pseudomonas aeruginosa; details: for minimal inhibitory concentration (MIC): P. aeruginosa MSC17707, AMK-resistant; for MIC: Pseudomonas aeruginosa, MSC17707, P. aeruginosa MSC17707, AMK-resistant, read-out: minimal inhibitory concentration (MIC)
# Procedure: as §1
# E. faecium ATCC19434 = assay: MIC, agar plate dilution method, E. faecium ATCC19434; type: cell-based, Enterococcus faecium; details: for minimal inhibitory concentration (MIC): E. faecium ATCC19434; for MIC: Enterococcus faecium, ATCC19434, E. faecium ATCC19434, read-out: minimal inhibitory concentration (MIC)
# Procedure: as §1
# P. aeruginosa PAO1/GN315 = assay: MIC, agar plate dilution method, P. aeruginosa PAO1/GN315; type: cell-based, Pseudomonas aeruginosa; details: for minimal inhibitory concentration (MIC): P. aeruginosa PAO1/GN315, AMK-resistant; for MIC: Pseudomonas aeruginosa, read-out: minimal inhibitory concentration (MIC), P. aeruginosa PAO1/GN315, AMK-resistant
# Procedure: as §1
# S. marcescens TH-0447 = assay: MIC, agar plate dilution method, S. marcescens TH-0447; type: cell-based, Serratia marcescens; details: for minimal inhibitory concentration (MIC): S. marcescens TH-0447, AMK-resistant; for MIC: Serratia marcescens, TH0447, S. marcescens TH-0447, AMK-resistant, read-out: minimal inhibitory concentration (MIC)
# Procedure: as §1
# S. aureus RN4220/pMS520 = assay: MIC, agar plate dilution method, S. aureus RN4220/pMS520; type: cell-based, Staphylococcus aureus; details: for minimal inhibitory concentration (MIC): S. aureus RN4220/pMS520, MRSA; for MIC: Staphylococcus aureus, MRSA, read-out: minimal inhibitory concentration (MIC), S. aureus RN4220/pMS520, MRSA
# Procedure: as §1
# [2] = test system: A. baumannii ATCC BAA-1710; assay: MIC, agar plate dilution method, A. baumannii ATCC BAA-1710; type: cell-based, Acinetobacter baumannii; details: for minimal inhibitory concentration (MIC): A. baumannii ATCC BAA-1710, MDRA; for MIC: Acinetobacter baumannii, ATCCBAA1710, A. baumannii ATCC BAA-1710, MDRA, read-out: minimal inhibitory concentration (MIC)
# Procedure: as §1
# [3] = test system: K. pneumoniae ATCC BAA-1705; assay: MIC, agar plate dilution method, K. pneumoniae ATCC BAA-1705; type: cell-based, Klebsiella pneumoniae; details: for minimal inhibitory concentration (MIC): K. pneumoniae ATCC BAA-1705, KPC-producing strain; for MIC: Klebsiella pneumoniae, ATCCBAA1705, K. pneumoniae ATCC BAA-1705, KPC-producing strain, read-out: minimal inhibitory concentration (MIC)
# Procedure: as §1
# E. coli JM109/pMW218 = assay: MIC, agar plate dilution method, E. coli JM109/pMW218; type: cell-based, Escherichia coli; details: for minimal inhibitory concentration (MIC): E. coli JM109/pMW218, Sensitive bacterium; for MIC: Escherichia coli, JM109/PMW218, E. coli JM109/pMW218, Sensitive bacterium, read-out: minimal inhibitory concentration (MIC)
# Procedure: as §1
# S. marcescens GN6944 = assay: MIC, agar plate dilution method, S. marcescens GN6944; type: cell-based, Serratia marcescens; details: S. marcescens GN6944, GM-resistant; for MIC: Serratia marcescens, read-out: minimal inhibitory concentration (MIC)
# Procedure: as §1
# S. aureus MF490 = assay: MIC, agar plate dilution method, S. aureus MF490; type: cell-based, Staphylococcus aureus; details: for minimal inhibitory concentration (MIC): S. aureus MF490, MRSA; for MIC: Staphylococcus aureus, MRSA, read-out: minimal inhibitory concentration (MIC)
# Procedure: as §1
SMILES,minimal inhibitory concentration (MIC) (P. aeruginosa MSC01035),minimal inhibitory concentration (MIC) (S. aureus RN4220),minimal inhibitory concentration (MIC) [1],minimal inhibitory concentration (MIC) (P. aeruginosa PAO1),minimal inhibitory concentration (MIC) (P. aeruginosa MSC17707),minimal inhibitory concentration (MIC) (E. faecium ATCC19434),MIC (P. aeruginosa MSC01035),MIC (S. aureus RN4220),MIC [1],MIC (P. aeruginosa PAO1),MIC (P. aeruginosa MSC17707),MIC (E. faecium ATCC19434),MIC (P. aeruginosa PAO1/GN315),MIC (S. marcescens TH-0447),MIC (S. aureus RN4220/pMS520),MIC [2],MIC [3],MIC (E. coli JM109/pMW218),MIC (S. marcescens GN6944),MIC (S. aureus MF490),other results
"CNC1C(O[C@H]2OC(CO)[C@@H](NC(=O)CN)[C@H](O)C2O)O[C@H]2CC(N)[C@@H](O[C@@H]3C(N)C[C@@H](N)C(O)[C@H]3O)OC2C1O (single isomer, unassigned) [Compound V1-a, 4″-N-glycylapramycin]",4 µg/mL,4 µg/mL,2 µg/mL,4 µg/mL,8 µg/mL,32 µg/mL,,,,,,,,,,,,,,,minimal inhibitory concentration (MIC) (P. aeruginosa PAO1/GN315): 4 µg/mL; minimal inhibitory concentration (MIC) (S. marcescens TH-0447): 8 µg/mL; minimal inhibitory concentration (MIC) (S. aureus RN4220/pMS520): 4 µg/mL; minimal inhibitory concentration (MIC) [2]: 8 µg/mL; minimal inhibitory concentration (MIC) [3]: 2 µg/mL; minimal inhibitory concentration (MIC) (E. coli JM109/pMW218): 2 µg/mL; minimal inhibitory concentration (MIC) (S. marcescens GN6944): 8 µg/mL; minimal inhibitory concentration (MIC) (S. aureus MF490): 16 µg/mL
"CNC1C(OC2OC(CO)C(N)C(O)C2O)OC2CC(N)C(OC3C(N)CC(N)CC3N)OC2C1O (stereo not shown) [Compound C11, 5-amino-5,6-dideoxyapramycin]",32 µg/mL,8 µg/mL,4 µg/mL,16 µg/mL,16 µg/mL,32 µg/mL,,,,,,,,,,,,,,,minimal inhibitory concentration (MIC) (P. aeruginosa PAO1/GN315): 16 µg/mL; minimal inhibitory concentration (MIC) (S. marcescens TH-0447): 16 µg/mL; minimal inhibitory concentration (MIC) (S. aureus RN4220/pMS520): 8 µg/mL; minimal inhibitory concentration (MIC) [2]: 16 µg/mL; minimal inhibitory concentration (MIC) [3]: 4 µg/mL; minimal inhibitory concentration (MIC) (E. coli JM109/pMW218): 2 µg/mL; minimal inhibitory concentration (MIC) (S. marcescens GN6944): 16 µg/mL; minimal inhibitory concentration (MIC) (S. aureus MF490): 16 µg/mL
"CNC1C(O[C@H]2OC(CO)[C@@H](NC(=N)N)[C@H](O)C2O)O[C@H]2CC(N)[C@@H](O[C@@H]3C(N)C[C@@H](N)C(O)[C@H]3F)OC2C1O (stereo partly drawn) [Compound S1-k, 4″-deamino-5-deoxy-5-epi-5-fluoro-4″-guanidinoapramycin]",,,,,,,8 µg/mL,1 µg/mL,1 µg/mL,8 µg/mL,8 µg/mL,16 µg/mL,8 µg/mL,8 µg/mL,1 µg/mL,8 µg/mL,1 µg/mL,0.5 µg/mL,4 µg/mL,4 µg/mL,
"CNC1C(O[C@H]2OC(CO)[C@@H](NCCN)[C@H](O)C2O)O[C@H]2CC(N)[C@@H](O[C@H]3CC[C@H](N)CC3N)OC2C1O (stereo partly shown) [Compound T2-b, 4″-N-(2-aminoethyl)-5,6-dideoxyapramycin]",,,,,,,16 µg/mL,4 µg/mL,2 µg/mL,8 µg/mL,8 µg/mL,16 µg/mL,8 µg/mL,8 µg/mL,4 µg/mL,8 µg/mL,2 µg/mL,1 µg/mL,8 µg/mL,8 µg/mL,
"CNC1C(O[C@H]2OC(CO)[C@@H](NC(=O)[C@@H](O)CN)[C@H](O)C2O)O[C@H]2CC(N)[C@@H](O[C@@H]3C(N)C[C@@H](N)C(O)[C@H]3O)OC2C1O (stereo partly drawn) [Compound V1-h, 4″-N-(L-isoseryl)apramycin]",,,,,,,4 µg/mL,4 µg/mL,2 µg/mL,16 µg/mL,4 µg/mL,32 µg/mL,8 µg/mL,16 µg/mL,4 µg/mL,8 µg/mL,2 µg/mL,2 µg/mL,8 µg/mL,8 µg/mL,
"CNC1C(OC2OC(CO)C(NCCNC(=N)N)C(O)C2O)OC2CC(N)C(OC3C(N)CC(N)C(O)C3O)OC2C1O (stereo not shown) [Compound A4-k, 4″-N-guanidinoethylapramycin]",16 µg/mL,2 µg/mL,1 µg/mL,8 µg/mL,16 µg/mL,16 µg/mL,,,,,,,,,,,,,,,minimal inhibitory concentration (MIC) (P. aeruginosa PAO1/GN315): 8 µg/mL; minimal inhibitory concentration (MIC) (S. marcescens TH-0447): 8 µg/mL; minimal inhibitory concentration (MIC) (S. aureus RN4220/pMS520): 2 µg/mL; minimal inhibitory concentration (MIC) [2]: 8 µg/mL; minimal inhibitory concentration (MIC) [3]: 1 µg/mL; minimal inhibitory concentration (MIC) (E. coli JM109/pMW218): 0.5 µg/mL; minimal inhibitory concentration (MIC) (S. marcescens GN6944): 4 µg/mL; minimal inhibitory concentration (MIC) (S. aureus MF490): 16 µg/mL
"CNC1C(O[C@H]2OC(CO)[C@@H](NC(=O)CN)[C@H](O)C2O)O[C@H]2C[C@H](N)[C@@H](O[C@@H]3C(N)C[C@@H](N)C(O)[C@H]3N)OC2C1O (stereo partly drawn) [Compound W2-b, 5-amino-5-deoxy-5-epi-4″-N-glycylapramycin]",,,,,,,4 µg/mL,4 µg/mL,2 µg/mL,2 µg/mL,4 µg/mL,32 µg/mL,4 µg/mL,16 µg/mL,2 µg/mL,8 µg/mL,2 µg/mL,1 µg/mL,8 µg/mL,16 µg/mL,
"CNC1C(O[C@H]2OC(CO)[C@@H](NC(=O)CCN)[C@H](O)C2O)O[C@H]2CC(N)[C@@H](O[C@@H]3C(N)C[C@@H](N)C(O)[C@H]3O)OC2C1O (stereo partly drawn) [Compound V1-g, 4″-N-(β-alanyl)apramycin]",,,,,,,4 µg/mL,4 µg/mL,1 µg/mL,4 µg/mL,4 µg/mL,32 µg/mL,4 µg/mL,16 µg/mL,2 µg/mL,8 µg/mL,2 µg/mL,1 µg/mL,8 µg/mL,8 µg/mL,
